Consider 43 compounds from US5260257A, “Thermal transfer sheet” (Dai Nippon Printing Co., Ltd., priority 1991, dated 1993).

A short description of the series: light fastness test (xenon fadeometer, percentage fading). The format is physicochemical. The conditions noted are these: 70 kJ/m^2. The protocol:
The light fastness test was conducted as follows.
Irradiation was conducted by means of a xenon fadeometer Ci35A (manufactured by Atlas) under conditions of a black panel temperature of 50° C. and an integrating irradiation energy of 70 kJ/m^2.
The percentage fading was determined from a density change around an initial density of 1.0 according to the following equation.
Percentage fading=(1-I/I0)×100 (%)
I=optical density after irradiation; and
I0 =optical density before irradiation.
.largecircle.: less than 20% in the percentage fading
X : 20% or more in the percentage fading

[1] abbreviates: Table A3, Comparative Examples A1-A6, 50° C.
The mark [2] stands for this setting: Table B3, Comparative Examples B1-B6, 50° C.
The mark [3] stands for this setting: Table C (C3), Comparative Examples C1-C6, 50° C.
[4] abbreviates: Table B2, dyes of Table B1, 50° C.
Where [5] appears, read: Table C2, dyes of Table C1, 50° C.

As for `CNc1ccc(NC)c2c1C(=O)c1ccccc1C2=O` [Comp. Ex. A1, C.I. Disperse Blue 14, reference compound], the Light fastness entry is, setting by setting: under setting [1], “Δ”; under setting [2], “Δ”; under setting [3], “Δ”.

Regarding `CC(C)Nc1ccc(NC(C)C)c2c1C(=O)c1ccccc1C2=O` [Comp. Ex. A2, C.I. Disperse Blue 134, reference compound], the Light fastness entry runs as follows: under setting [1], “Δ”; under setting [2], “Δ”; under setting [3], “Δ”.

On to `CNc1ccc(Nc2cccc(C)c2)c2c1C(=O)c1ccccc1C2=O` [Comp. Ex. A3, C.I. Solvent Blue 63, reference compound], for which the Light fastness result by setting is: under setting [1], “Δ”; under setting [2], “Δ”; under setting [3], “Δ”.

On to `CNc1ccc(O)c2c1C(=O)c1c(O)ccc(NC)c1C2=O` [Comp. Ex. A4, C.I. Disperse Blue 26, reference compound], for which the Light fastness entry under setting [1] was “Δ”, the Light fastness result under setting [2] is listed as “Δ” and the Light fastness result under setting [3] is “Δ”.

As to `CNc1ccc(N)c2c1C(=O)c1ccccc1C2=O` [Comp. Ex. A5, C.I. Disperse Violet 4, reference compound], the Light fastness entry runs as follows: under setting [1], “Δ”; under setting [2], “Δ”; under setting [3], “Δ”.

Regarding `CCN(CC)c1ccc(N=C2C=C(NC(=O)c3ccccc3)C(=O)C(Cl)=C2C)c(C)c1` [Comparative Example A6, reference compound], under setting [1], the Light fastness entry was “.largecircle. (less than 20% in the percentage fading)”.

Take `CCN(CC)c1ccc(N=C2C=C(NC(=O)c3ccccc3)C(=O)C(Cl)=C2C)c(C)c1` [Comparative Example B6, reference compound]: under setting [2], the Light fastness result is on record as “.largecircle. (less than 20% in the percentage fading)”.

In the case of `CCN(CC)c1ccc(N=C2C=C(NC(=O)c3ccccc3)C(=O)C(Cl)=C2C)c(C)c1` [Comparative Example C6, reference compound], the Light fastness result under setting [3] is listed as “.largecircle. (less than 20% in the percentage fading)”.

As for `CCN(CC)c1ccc(N=C2C=C(NC(=O)C3CC=CCC3)C(=O)C(Cl)=C2C)c(C)c1` (centres unmarked) [Dye No. 1 in Table B1], the Light fastness entry under setting [4] is “.largecircle. (less than 20% in the percentage fading)”.

On to `CCN(CC)c1ccc(N=C2C=C(NC(=O)C3CC4C=CC3C4)C(=O)C(Cl)=C2C)c(C)c1` (centres unmarked) [Dye No. 1 in Table C1], for which the Light fastness entry under setting [5] is recorded as “.largecircle. (less than 20% in the percentage fading)”.

Consider `CCN(CCO)c1ccc(N=C2C=C(NC(=O)C3CC=CCC3)C(=O)C(Cl)=C2C)c(C)c1` (centres unmarked) [Dye No. 2 in Table B1], for which the Light fastness entry under setting [4] is “.largecircle. (less than 20% in the percentage fading)”.

For the compound `CCN(CC)c1ccc(N=C2C=CC(=O)C(NC(=O)C3CC4C=CC3C4)=C2)c(C)c1` (centres unmarked) [Dye No. 2 in Table C1], under setting [5], the Light fastness entry is “.largecircle. (less than 20% in the percentage fading)”.

For the compound `CCN(CC)c1ccc(N=C2C=C(NC(=O)C3CC=CCC3)C(=O)C=C2NC(C)=O)c(C)c1` (centres unmarked) [Dye No. 3 in Table B1], the Light fastness result under setting [4] was “.largecircle. (less than 20% in the percentage fading)”.

For `CCN(CCO)c1ccc(N=C2C=C(NC(=O)C3CC4C=CC3C4)C(=O)C(Cl)=C2C)c(C)c1` (centres unmarked) [Dye No. 3 in Table C1], under setting [5], the Light fastness result was “.largecircle. (less than 20% in the percentage fading)”.

In the case of `CCOc1cc(N(CC)CC)ccc1N=C1C=CC(=O)C(NC(=O)C2CC=CCC2)=C1` (centres unmarked) [Dye No. 4 in Table B1], under setting [4], the Light fastness result is recorded as “.largecircle. (less than 20% in the percentage fading)”.

On to `CCN(CC)c1ccc(N=C2C=C(NC(=O)C3CC4C=CC3C4)C(=O)C=C2NC(C)=O)c(C)c1` (centres unmarked) [Dye No. 4 in Table C1], for which the Light fastness result under setting [5] is “.largecircle. (less than 20% in the percentage fading)”.

As for `CCC1=C(Cl)C(=O)C(NC(=O)C2CC=CCC2)=CC1=Nc1ccc(N(CC)CC)cc1C` (centres unmarked) [Dye No. 5 in Table B1], under setting [4], the Light fastness result was “.largecircle. (less than 20% in the percentage fading)”.

As for `CCOc1cc(N(CC)CC)ccc1N=C1C=CC(=O)C(NC(=O)C2CC3C=CC2C3)=C1` (centres unmarked) [Dye No. 5 in Table C1], the Light fastness entry under setting [5] is reported as “.largecircle. (less than 20% in the percentage fading)”.

Take `CCN(CC)c1ccc(N=C2C=C(NC(=O)C3CC=CCC3)C(=O)C(Cl)=C2C)c(NC(C)=O)c1` (centres unmarked) [Dye No. 6 in Table B1]: the Light fastness entry under setting [4] is “.largecircle. (less than 20% in the percentage fading)”.

In the case of `CCN(CC)c1ccc(N=C2C=C(NC(=O)C3CC4C=CC3C4)C(=O)C(Cl)=C2C)cc1` (centres unmarked) [Dye No. 6 in Table C1], the Light fastness entry under setting [5] was “.largecircle. (less than 20% in the percentage fading)”.

With `CCN(CCCl)c1ccc(N=C2C=C(NC(=O)C3CC=CCC3)C(=O)C(Cl)=C2C)c(NC(=O)NC)c1` (centres unmarked) [Dye No. 7 in Table B1], the Light fastness result under setting [4] is “.largecircle. (less than 20% in the percentage fading)”.

In the case of `CCC1=C(Cl)C(=O)C(NC(=O)C2CC3C=CC2C3)=CC1=Nc1ccc(N(CC)CC)cc1C` (centres unmarked) [Dye No. 7 in Table C1], the Light fastness entry under setting [5] was “.largecircle. (less than 20% in the percentage fading)”.

As for `CCOc1cc(N(CC)CC)ccc1N=C1C=CC(=O)C(NC(=O)C2C=CCCC2)=C1` (centres unmarked) [Dye No. 8 in Table B1], the Light fastness result under setting [4] is listed as “.largecircle. (less than 20% in the percentage fading)”.

In the case of `CCN(CC)c1ccc(N=C2C=C(NC(=O)C3CC4C=CC3C4)C(=O)C(Cl)=C2C)c(NC(C)=O)c1` (centres unmarked) [Dye No. 8 in Table C1], the Light fastness entry under setting [5] is given as “.largecircle. (less than 20% in the percentage fading)”.

Regarding `CCOc1cc(N(CC)CCO)ccc1N=C1C=C(NC(=O)C2=CCCCC2)C(=O)C=C1NC(C)=O` [Dye No. 9 in Table B1], the Light fastness entry under setting [4] is listed as “.largecircle. (less than 20% in the percentage fading)”.

On to `CCN(CCCl)c1ccc(N=C2C=C(NC(=O)C3CC4C=CC3C4)C(=O)C(Cl)=C2C)c(NC(=O)NC)c1` (centres unmarked) [Dye No. 9 in Table C1], for which the Light fastness result under setting [5] is “.largecircle. (less than 20% in the percentage fading)”.

As to `CCN(CC)c1ccc(N=C2C=C(NC(=O)C3=CCC=CC3)C(=O)C(Cl)=C2C)c(C)c1` [Dye No. 10 in Table B1], the Light fastness entry under setting [4] is “.largecircle. (less than 20% in the percentage fading)”.

As to `CCOc1cc(N(CC)CCO)ccc1N=C1C=C(NC(=O)C2CC3C=CC2C3)C(=O)C=C1NC(C)=O` (centres unmarked) [Dye No. 10 in Table C1], the Light fastness entry under setting [5] was “.largecircle. (less than 20% in the percentage fading)”.

As for `CCN(CC)c1ccc(N=C2C=CC(=O)C(NC(=O)C3C=CCC=C3)=C2)c(NC(C)=O)c1` [Dye No. 11 in Table B1], under setting [4], the Light fastness result is given as “.largecircle. (less than 20% in the percentage fading)”.

On to `CCN(CC)c1ccc(N=C2C=C(NC(=O)C3=CC4C=CC3C4)C(=O)C(Cl)=C2C)c(C)c1` (centres unmarked) [Dye No. 11 in Table C1], for which, under setting [5], the Light fastness result is “.largecircle. (less than 20% in the percentage fading)”.

Turning to `CCN(CC)c1ccc(N=C2C=CC(=O)C(NC(=O)C3=CC4C=CC3C4)=C2)c(NC(C)=O)c1` (centres unmarked) [Dye No. 12 in Table C1], the Light fastness result under setting [5] is recorded as “.largecircle. (less than 20% in the percentage fading)”.

For `CCN(CCC#N)c1ccc(N=C2C=C(NC(=O)C3CC=CC3)C(=O)C(Cl)=C2C)c(NS(C)(=O)=O)c1` [Dye No. 13 in Table B1], the Light fastness result under setting [4] was “.largecircle. (less than 20% in the percentage fading)”.

As for `CCN(Cc1ccccc1)c1ccc(N=C2C=C(NC(=O)C3=CC4C=CC3C4)C(=O)C=C2NC(C)=O)cc1` (centres unmarked) [Dye No. 13 in Table C1], the Light fastness result under setting [5] is listed as “.largecircle. (less than 20% in the percentage fading)”.

As for `CCN(CCNS(C)(=O)=O)c1ccc(N=C2C=C(NC(=O)C3CC=CC3)C(=O)C=C2NS(C)(=O)=O)c(C)c1` [Dye No. 14 in Table B1], under setting [4], the Light fastness entry is given as “.largecircle. (less than 20% in the percentage fading)”.

With `CCN(CCC#N)c1ccc(N=C2C=C(NC(=O)C3=CC4C=CC3C4)C(=O)C(Cl)=C2C)c(NS(C)(=O)=O)c1` (centres unmarked) [Dye No. 14 in Table C1], the Light fastness result under setting [5] is reported as “.largecircle. (less than 20% in the percentage fading)”.

Take `CCN(c1ccccc1)c1ccc(N=C2C=C(NC(=O)C3CC=CC3)C(=O)C=C2NC(=O)NC)c(Cl)c1` [Dye No. 15 in Table B1]: the Light fastness result under setting [4] was “.largecircle. (less than 20% in the percentage fading)”.

In the case of `CCN(c1ccccc1)c1ccc(N=C2C=C(NC(=O)C3=CC4C=CC3C4)C(=O)C=C2NC(=O)NC)c(Cl)c1` (centres unmarked) [Dye No. 15 in Table C1], the Light fastness entry under setting [5] is “.largecircle. (less than 20% in the percentage fading)”.

Turning to `CCN(c1ccccc1)c1ccc(N=C2C=C(NC(=O)C3=CCCC3)C(=O)C=C2NC(=O)NC)c(Cl)c1` [Dye No. 17 in Table B1], the Light fastness result under setting [4] is on record as “.largecircle. (less than 20% in the percentage fading)”.

On to `CCOCCN(CC)c1ccc(N=C2C=C(NC(=O)C3CC4CCC3C4)C(=O)C(Cl)=C2C)c(C)c1` (centres unmarked) [Dye No. 17 in Table C1], for which, under setting [5], the Light fastness entry is “.largecircle. (less than 20% in the percentage fading)”.

Take `CCN(CC)c1ccc(N=C2C=C(NC(=O)C3=CCC=CC3)C(=O)C(Cl)=C2C)cc1` [Dye No. 18 in Table B1]: the Light fastness result under setting [4] is given as “.largecircle. (less than 20% in the percentage fading)”.

As for `CCN(CC)c1ccc(N=C2C=C(NC(=O)C3CC4C=C(C)C3C4)C(=O)C(Cl)=C2C)c(C)c1` (centres unmarked) [Dye No. 18 in Table C1], under setting [5], the Light fastness entry is recorded as “.largecircle. (less than 20% in the percentage fading)”.

With `CCN(CCOC)c1ccc(N=C2C=C(NC(=O)C3=CCC=CC3)C(=O)C=C2NC(C)=O)c(NC(C)=O)c1` [Dye No. 19 in Table B1], under setting [4], the Light fastness result is on record as “.largecircle. (less than 20% in the percentage fading)”.

Consider `CCOc1cc(N(CC)CC)c(OCC)cc1N=C1C=C(NC(=O)C2CC3C=C(C)C2C3)C(=O)C(Cl)=C1C` (centres unmarked) [Dye No. 19 in Table C1], for which the Light fastness entry under setting [5] is “.largecircle. (less than 20% in the percentage fading)”.
